The values below come from patent US9187411B2, “Leukotriene B4 antagonist compound” (Eli Lilly and Company, priority 2012, dated 2015).

This assay addresses T1, PPARγ (Homo sapiens, UniProt P37231).
T1 construct: made in house; host or cells: Sf9 insect cells (baculovirus), crude cell lysate
T1 sequence (P37231 1-505): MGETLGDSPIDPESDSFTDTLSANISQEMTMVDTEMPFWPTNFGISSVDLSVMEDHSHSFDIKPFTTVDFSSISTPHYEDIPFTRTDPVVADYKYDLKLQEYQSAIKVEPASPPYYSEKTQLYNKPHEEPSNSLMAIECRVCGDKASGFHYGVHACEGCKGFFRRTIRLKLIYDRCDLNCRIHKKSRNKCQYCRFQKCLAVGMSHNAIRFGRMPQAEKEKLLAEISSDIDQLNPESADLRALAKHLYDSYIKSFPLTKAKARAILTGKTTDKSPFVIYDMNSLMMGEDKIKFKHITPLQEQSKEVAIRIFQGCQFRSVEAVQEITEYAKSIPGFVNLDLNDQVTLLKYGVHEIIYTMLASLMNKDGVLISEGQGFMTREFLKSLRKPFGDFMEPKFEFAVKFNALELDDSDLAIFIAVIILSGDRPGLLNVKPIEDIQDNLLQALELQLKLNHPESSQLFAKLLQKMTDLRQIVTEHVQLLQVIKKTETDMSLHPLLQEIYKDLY
T1 sequence (P19793 1-462 partner): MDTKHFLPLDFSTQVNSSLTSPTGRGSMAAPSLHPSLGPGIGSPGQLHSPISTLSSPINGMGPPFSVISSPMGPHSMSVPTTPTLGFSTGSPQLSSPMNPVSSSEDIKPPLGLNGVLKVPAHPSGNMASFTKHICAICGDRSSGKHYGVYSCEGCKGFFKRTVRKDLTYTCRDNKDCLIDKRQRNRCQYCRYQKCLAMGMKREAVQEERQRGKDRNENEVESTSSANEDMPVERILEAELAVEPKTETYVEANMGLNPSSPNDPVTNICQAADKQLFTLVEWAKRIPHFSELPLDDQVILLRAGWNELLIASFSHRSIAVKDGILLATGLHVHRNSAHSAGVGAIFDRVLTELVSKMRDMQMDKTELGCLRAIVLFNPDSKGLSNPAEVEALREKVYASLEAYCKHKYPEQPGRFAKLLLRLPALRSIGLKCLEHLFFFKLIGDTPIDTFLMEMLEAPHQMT
As to the kind of experiment: PPAR gamma binding assay (SPA). As to conditions: n=2, read-out: Ki PPAR γ binding. The text has this:
The nucleotide sequences encoding full-length PPARα receptor DNA (National Center for Biotechnology Information (NCBI) Reference Sequence NM_005036.4), PPARδ receptor DNA (NCBI Reference Sequence NM_006238.4), PPARγ receptor DNA (NCBI Reference Sequence NM_015869.4) and Retinoid X Receptor (RXR) α DNA (NCBI Reference Sequence NM_002957.4) are synthesized and inserted into pFastBacHTb (Invitrogen) vector in-framed with the N-terminal HIS tag from the vector. […] The protein concentration is determined by Bradford assay using BSA as the standard.
Binding Affinities of Compounds for the PPAR α, δ, γ Receptors are Assessed Using Scintillation Proximity Assay (SPA) Technology.
Biotinylated oligonucleotide(DR2) ^5′[…]^3′ (SEQ ID NO: 1) is used for binding of receptors to Yttrium silicate streptavidin-coated SPA beads (Perkin Elmer). The PPAR α, δ, γ and Retinoid X Receptor (RXR) α receptors (endogenously expressed as heterodimers) are cell lysates from Baculovirus expression systems in Sf9 cells. […] Non-specific binding is determined in the presence of 10000 nM unlabeled GW2331 (Kliewer, S. A. et al Proc. Natl. Acad. Sci. USA (1997), 94: 4318-4323) for the alpha and delta receptors and 2-methyl-2-[4-[3-[propyl[(5-pyridin-2-ylthiophen-2-yl)sulfonyl]amino]-propyl]phenoxy]propanoic (WO 2004/073606) for the gamma receptor. […]

pKi: −log10 of the molar value.

As for `CCCc1c(NC(=O)CC(C)(C)C(=O)[O-])cccc1OCCCOc1cc(O)c(-c2ccc(F)cc2)cc1CC.[Na+]` [Example 2, Sodium 4-[[3-[3-[2-ethyl-4-(4-fluorophenyl)-5-hydroxy-phenoxy]propoxy]-2-propyl-phenyl]amino]-2,2-dimethyl-4-oxo-butanoate], the pKi was 5.86.

As usually defined, the pKi is −log10 of the Ki, conventionally taken in molar units.
